# Measurements as given in PubChem BioAssay AID328 (DTP/NCI, 2004).
# “And” between values parts separate entries of the source, which are not always exact repeats. Equal values may be shown once. Inconclusive results and toxic doses are left out.
# Tested on: BDF1 mice, P388 leukemia ip, median survival T/C
# Assay: NCI In Vivo Anticancer Drug Screen. Data for tumor model P388 Leukemia (intraperitoneal) in B6D2F1 (BDF1) mice
# Details: endpoint: median survival time, higher = longer survival
# Outline: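 Compound-treated tumour-bearing mice were compared with vehicle-treated controls. Survival was recorded, and the value is the treated-group measurement divided by the control-group measurement (T/C).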
# [1] = dose: 25.0 mg/kg/injection, schedule: Q01DX009 (ip), vehicle: saline with Tween-80
# [2] = dose: 50.0 mg/kg/injection, schedule: Q01DX009 (ip), vehicle: saline with Tween-80
# [3] = dose: 100.0 mg/kg/injection, schedule: Q01DX009 (ip), vehicle: saline with Tween-80
# [4] = dose: 100.0 mg/kg/injection, schedule: Q01DX009 (ip), vehicle: saline
# [5] = dose: 100.0 mg/kg/injection, schedule: Q04DX003 (ip), vehicle: saline with Tween-80
# [6] = dose: 100.0 mg/kg/injection, schedule: Q04DX003 (ip), vehicle: saline
# [7] = dose: 200.0 mg/kg/injection, schedule: Q01DX009 (ip), vehicle: saline
# [8] = dose: 200.0 mg/kg/injection, schedule: Q04DX003 (ip), vehicle: saline with Tween-80
# [9] = dose: 200.0 mg/kg/injection, schedule: Q04DX003 (ip), vehicle: saline
# [10] = dose: 400.0 mg/kg/injection, schedule: Q01DX009 (ip), vehicle: saline
# [11] = dose: 400.0 mg/kg/injection, schedule: Q04DX003 (ip), vehicle: saline with Tween-80
# [12] = dose: 6.25 mg/kg/injection, schedule: Q01DX009 (ip), vehicle: saline with Tween-80
# [13] = dose: 12.5 mg/kg/injection, schedule: Q01DX009 (ip), vehicle: saline with Tween-80
# [14] = dose: 25.0 mg/kg/injection, schedule: Q01DX009 (ip), vehicle: Klucel (hydroxypropylcellulose) (HPC)
# [15] = dose: 50.0 mg/kg/injection, schedule: Q01DX009 (ip), vehicle: Klucel (hydroxypropylcellulose) (HPC)
# [16] = dose: 100.0 mg/kg/injection, schedule: Q01DX009 (ip), vehicle: Klucel (hydroxypropylcellulose) (HPC)
# [17] = dose: 100.0 mg/kg/injection, schedule: Q04DX003 (ip), vehicle: Klucel (hydroxypropylcellulose) (HPC)
# [18] = dose: 200.0 mg/kg/injection, schedule: Q01DX009 (ip), vehicle: Klucel (hydroxypropylcellulose) (HPC)
# [19] = dose: 200.0 mg/kg/injection, schedule: Q04DX003 (ip), vehicle: Klucel (hydroxypropylcellulose) (HPC)
# [20] = dose: 400.0 mg/kg/injection, schedule: Q01DX009 (ip), vehicle: Klucel (hydroxypropylcellulose) (HPC)
# [21] = dose: 400.0 mg/kg/injection, schedule: Q04DX003 (ip), vehicle: Klucel (hydroxypropylcellulose) (HPC)
# [22] = dose: 25.0 mg/kg/injection, schedule: Q04DX003 (ip), vehicle: saline with Tween-80
# [23] = dose: 200.0 mg/kg/injection, schedule: Q01DX009 (ip), vehicle: saline with Tween-80
# [24] = dose: 12.0 mg/kg/injection, schedule: Q01DX009 (ip), vehicle: Klucel (hydroxypropylcellulose) (HPC)
# [25] = dose: 50.0 mg/kg/injection, schedule: Q04DX003 (ip), vehicle: saline with Tween-80
# [26] = dose: 400.0 mg/kg/injection, schedule: Q01DX009 (ip), vehicle: saline with Tween-80
# [27] = dose: 100.0 mg/kg/injection, schedule: Q04DX003 (ip), vehicle: other
# [28] = dose: 200.0 mg/kg/injection, schedule: Q04DX003 (ip), vehicle: other
compound,measurement,setting,value
OCCOCC(F)(F)F,T/C,[1],98 % of control
same,T/C,[2],105 % of control
same,T/C,[3],88 % of control and 108 % of control
same,T/C,[4],122 % of control
same,T/C,[5],100 % of control
same,T/C,[6],100 % of control
same,T/C,[7],122 % of control
same,T/C,[8],123 % of control
same,T/C,[9],100 % of control
same,T/C,[10],111 % of control
same,T/C,[11],88 % of control
same,T/C,"dose: 400.0 mg/kg/injection, schedule: Q04DX003 (ip), vehicle: saline",90 % of control
CC(C)(C)OC(=O)NC(CC(Cc1ccccc1)C(=O)O)C(=O)NC(CC(Cc1ccccc1)C(=O)O)C(=O)NC(CC(Cc1ccccc1)C(=O)O)C(=O)NCC(=O)Oc1ccc([N+](=O)[O-])cc1 (stereo unspecified),T/C,"dose: 50.0 mg/kg/injection, schedule: Q01DX005 (ip), vehicle: saline with Tween-80",86 % of control
same,T/C,"dose: 200.0 mg/kg/injection, schedule: Q01DX005 (ip), vehicle: saline with Tween-80",104 % of control
COc1ccccc1-n1c(=O)c(N=Nc2ccccc2)c(O)n(-c2ccccc2C)c1=S,T/C,"dose: 100.0 mg/kg/injection, schedule: Q01DX001 (ip), vehicle: saline with Tween-80",95 % of control
same,T/C,"dose: 200.0 mg/kg/injection, schedule: Q01DX001 (ip), vehicle: saline with Tween-80",95 % of control
OCCCC1CCCCC1,T/C,"dose: 50.0 mg/kg/injection, schedule: Q01DX009 (ip), vehicle: saline",111 % of control
same,T/C,[4],113 % of control
same,T/C,[7],117 % of control
CC1(C)C(=O)N(Cl)C(=O)N1Cl,T/C,[12],109 % of control
same,T/C,[13],113 % of control
same,T/C,[1],263 % of control
COc1c(CO)c2c(c(OC)c1OC)-c1ccc(OC)c(=O)cc1[C@@H](NC(C)=O)CC2,T/C,[14],153 % of control
same,T/C,[15],168 % of control
CCCCCCCCCCCCCCCC(=O)OCc1cc(=O)c(O)co1,T/C,[16],118 % of control
same,T/C,[17],104 % of control
same,T/C,[18],109 % of control
same,T/C,[19],104 % of control
same,T/C,[20],95 % of control
same,T/C,[21],113 % of control
CN(C)c1ccc(/C=C/c2nc3ccccc3s2)cc1,T/C,[16],100 % of control
same,T/C,[17],112 % of control
same,T/C,[18],109 % of control
same,T/C,[19],108 % of control
same,T/C,[20],109 % of control
same,T/C,[21],100 % of control
FC(F)(F)c1ccc2c(c1)N(CCCN(CCCl)CCCl)c1ccccc1S2,T/C,"dose: 3.1 mg/kg/injection, schedule: Q04DX003 (ip), vehicle: saline with Tween-80",112 % of control
same,T/C,"dose: 6.25 mg/kg/injection, schedule: Q04DX003 (ip), vehicle: saline with Tween-80",122 % of control
same,T/C,[22],119 % of control
CC(=O)c1c(C)c([N+](=O)[O-])c(C(C)(C)C)c([N+](=O)[O-])c1C,T/C,[18],91 % of control and 100 % of control
same,T/C,[20],100 % of control and 123 % of control
CSc1c(C)[nH]c2c(C)cccc12,T/C,"dose: 50.0 mg/kg/injection, schedule: Q04DX002 (ip), vehicle: saline with Tween-80",100 % of control
same,T/C,"dose: 100.0 mg/kg/injection, schedule: Q04DX002 (ip), vehicle: saline with Tween-80",100 % of control
same,T/C,"dose: 200.0 mg/kg/injection, schedule: Q04DX002 (ip), vehicle: saline with Tween-80",105 % of control
c1csc(C2Nc3ccccc3N2)c1,T/C,[2],105 % of control
same,T/C,[3],99 % of control
same,T/C,[23],119 % of control
CNc1ccc(/C=C2\C=Cc3ccccc32)cc1,T/C,[24],118 % of control
same,T/C,"dose: 12.0 mg/kg/injection, schedule: Q01DX009 (ip), vehicle: gum acacia",107 % of control
same,T/C,"dose: 12.5 mg/kg/injection, schedule: Q04DX003 (ip), vehicle: gum acacia",103 % of control
same,T/C,[14],100 % of control
same,T/C,"dose: 25.0 mg/kg/injection, schedule: Q01DX009 (ip), vehicle: gum acacia",103 % of control
same,T/C,"dose: 25.0 mg/kg/injection, schedule: Q04DX003 (ip), vehicle: Klucel (hydroxypropylcellulose) (HPC)",104 % of control
same,T/C,"dose: 25.0 mg/kg/injection, schedule: Q04DX003 (ip), vehicle: gum acacia",100 % of control
same,T/C,[15],90 % of control
same,T/C,"dose: 50.0 mg/kg/injection, schedule: Q01DX009 (ip), vehicle: gum acacia",92 % of control
same,T/C,"dose: 50.0 mg/kg/injection, schedule: Q04DX003 (ip), vehicle: Klucel (hydroxypropylcellulose) (HPC)",100 % of control
same,T/C,"dose: 50.0 mg/kg/injection, schedule: Q04DX003 (ip), vehicle: gum acacia",103 % of control
same,T/C,[17],86 % of control and 95 % of control
CCOC(=O)c1nc2nc(Cl)c(Cl)nc2[nH]1,T/C,"dose: 4.0 mg/kg/injection, schedule: Q01DX009 (ip), vehicle: saline",90 % of control
same,T/C,"dose: 25.0 mg/kg/injection, schedule: Q04DX003 (ip), vehicle: saline",93 % of control
same,T/C,"dose: 32.0 mg/kg/injection, schedule: Q01DX009 (ip), vehicle: saline",89 % of control
same,T/C,"dose: 50.0 mg/kg/injection, schedule: Q04DX003 (ip), vehicle: saline",98 % of control
same,T/C,[6],102 % of control
same,T/C,[9],93 % of control
CN(C)C1CCc2ccccc2C1OC(=O)/C=C/c1ccccc1 (stereo unspecified),T/C,[1],100 % of control
same,T/C,[2],102 % of control
same,T/C,[3],102 % of control
CCCCCCCCC(=O)N(C)OC,T/C,[22],104 % of control
same,T/C,[25],100 % of control
same,T/C,[5],100 % of control
CC(=O)[C@H]1CC[C@H]2[C@@H]3C[C@H](F)C4=CC(=O)CC[C@]4(C)[C@@]3(F)[C@@H](O)C[C@]12C,T/C,[24],122 % of control
same,T/C,"dose: 12.5 mg/kg/injection, schedule: Q01DX009 (ip), vehicle: Klucel (hydroxypropylcellulose) (HPC)",115 % of control
same,T/C,[14],100 % of control and 103 % of control
same,T/C,[15],90 % of control and 100 % of control
same,T/C,[17],95 % of control and 113 % of control
same,T/C,[19],95 % of control and 113 % of control
same,T/C,[21],95 % of control and 104 % of control and 109 % of control
C=C(C)C(=O)OC1CCCCC1,T/C,[4],111 % of control
same,T/C,[7],100 % of control
same,T/C,[10],117 % of control
O=C(/C=C(/c1ccccc1)P(=O)(c1ccccc1)c1ccccc1)c1ccccc1,T/C,[3],100 % of control
same,T/C,[23],95 % of control
same,T/C,[26],100 % of control
CC(C)CC1NC(=O)C(Cc2ccc(OCc3ccccc3)cc2)NC1=O (stereo unspecified),T/C,"dose: 40.0 mg/kg/injection, schedule: Q04DX003 (ip), vehicle: saline with Tween-80",95 % of control
same,T/C,[2],101 % of control
same,T/C,"dose: 66.0 mg/kg/injection, schedule: Q04DX003 (ip), vehicle: saline with Tween-80",91 % of control
same,T/C,[3],95 % of control
same,T/C,[5],87 % of control
same,T/C,"dose: 166.0 mg/kg/injection, schedule: Q04DX003 (ip), vehicle: saline with Tween-80",95 % of control
same,T/C,[23],93 % of control
same,T/C,[8],111 % of control
same,T/C,"dose: 276.0 mg/kg/injection, schedule: Q04DX003 (ip), vehicle: saline with Tween-80",91 % of control
same,T/C,[26],96 % of control
same,T/C,[11],111 % of control
CCC(C)(C)c1ccc(Oc2ccccc2)c(N)c1,T/C,[27],109 % of control
same,T/C,[28],113 % of control
CN(C)CCOCN1COCC1(C)C,T/C,[2],120 % of control
O=c1cc(-c2ccccc2)ss1,T/C,[12],98 % of control
same,T/C,[13],102 % of control and 122 % of control
same,T/C,[2],110 % of control and 121 % of control
same,T/C,[25],89 % of control
same,T/C,[3],121 % of control and 122 % of control
same,T/C,[27],105 % of control
same,T/C,[5],99 % of control and 100 % of control
same,T/C,"dose: 178.0 mg/kg/injection, schedule: Q04DX003 (ip), vehicle: other",111 % of control
same,T/C,[23],110 % of control
same,T/C,[28],100 % of control
same,T/C,[8],111 % of control
same,T/C,"dose: 266.0 mg/kg/injection, schedule: Q04DX003 (ip), vehicle: other",111 % of control
same,T/C,[11],100 % of control
